Measured values published in ChEMBL document CHEMBL5126512, “Current status of carbazole hybrids as anticancer agents” (Eur J Med Chem, 2022).

Assays:
[1] = tested on: MCF7; assay: Anticancer activity against human MCF7 cells assessed as cell growth inhibition measured after 24 hrs by MTT assay; assay type: functional, cell-based; details: MCF7, 24 h
[2] = Cytotoxicity against human HFB4 cells assessed as cell growth inhibition measured after 24 hrs by MTT assay; assay type: toxicity, cell-based
[3] = molecular target: Urokinase-type plasminogen activator (Homo sapiens, UniProt P00749); assay: Inhibition of urokinase plasminogen activator in human MCF7 cells measured after 24 hrs by ELISA method; assay type: cell-based
[4] = tested on: HeLa; assay: Antiproliferative activity against human HeLa cells assessed as cell growth inhibition by MTT assay; assay type: functional, cell-based
[5] = tested on: MDA-MB-231; assay: Antiproliferative activity against human MDA-MB-231 cells assessed as cell growth inhibition by MTT assay; assay type: functional, cell-based
[6] = tested on: MCF7; assay: Antiproliferative activity against human MCF7 cells assessed as cell growth inhibition by MTT assay; assay type: functional, cell-based
[7] = tested on: COLO 205; assay: Antiproliferative activity against human COLO 205 cells assessed as cell growth inhibition by MTT assay; assay type: functional, cell-based
[8] = tested on: A549; assay: Antiproliferative activity against human A549 cells assessed as cell growth inhibition by MTT assay; assay type: functional, cell-based
[9] = tested on: HCT-116; assay: Antiproliferative activity against human HCT-116 cells assessed as cell growth inhibition measured after 48 hrs by MTT assay; assay type: functional, cell-based; details: HCT-116, 48 h
[10] = tested on: HT-29; assay: Antiproliferative activity against human HT-29 cells assessed as cell growth inhibition measured after 48 hrs by MTT assay; assay type: functional, cell-based; details: HT-29, 48 h
[11] = Cytotoxicity against human A875 cells assessed as cell growth inhibition measured after 72 hrs by MTT assay; assay type: functional, cell-based; details: A875, 72 h
[12] = tested on: HepG2; assay: Cytotoxicity against human HepG2 cells assessed as cell growth inhibition measured after 72 hrs by MTT assay; assay type: functional, cell-based; details: HepG2, 72 h
[13] = Cytotoxicity against green monkey MARC145 cells assessed as cell growth inhibition measured after 72 hrs by MTT assay; assay type: toxicity, cell-based, Chlorocebus aethiops
[14] = tested on: HeLa; assay: Cytotoxicity against human HeLa cells assessed as cell growth inhibition by MTT assay; assay type: functional, cell-based
[15] = tested on: MCF7; assay: Cytotoxicity against human MCF7 cells assessed as cell growth inhibition by MTT assay; assay type: functional, cell-based
[16] = tested on: HEp-2; assay: Cytotoxicity against human HEp-2 cells assessed as cell growth inhibition by MTT assay; assay type: functional, cell-based
[17] = tested on: MCF7; assay: Antiproliferative activity against human MCF7 cells assessed as cell growth inhibition measured after 48 hrs by SRB assay; assay type: functional, cell-based; details: MCF7, time 48 hrs
[18] = tested on: MDA-MB-231; assay: Antiproliferative activity against human MDA-MB-231 cells assessed as cell growth inhibition measured after 48 hrs by SRB assay; assay type: functional, cell-based; details: MDA-MB-231, time 48 hrs
[19] = tested on: ASPC1; assay: Anticancer activity against human ASPC1 cells assessed as cell growth inhibition measured after 72 hrs by Cell-Titre Glo luminescent cell viability assay; assay type: functional, cell-based; details: ASPC1, 72 h
[20] = tested on: SW1990; assay: Anticancer activity against human SW1990 cells assessed as cell growth inhibition measured after 72 hrs by Cell-Titre Glo luminescent cell viability assay; assay type: functional, cell-based; details: SW1990, 72 h
[21] = tested on: K562; assay: Antiproliferative activity against human K562 cells assessed as cell growth inhibition by MTT assay; assay type: functional, cell-based
[22] = tested on: HCT-116; assay: Antiproliferative activity against human HCT-116 cells assessed as cell growth inhibition by MTT assay; assay type: functional, cell-based
[23] = tested on: SK-OV-3; assay: Antiproliferative activity against human SK-OV-3 cells assessed as cell growth inhibition by MTT assay; assay type: functional, cell-based
[24] = tested on: HCT-116; assay: Cytotoxicity against human HCT-116 cells assessed as cell growth inhibition measured after 48 hrs by MTT assay; assay type: functional, cell-based; details: HCT-116, 48 h
[25] = tested on: HepG2; assay: Cytotoxicity against human HepG2 cells assessed as cell growth inhibition measured after 48 hrs by MTT assay; assay type: functional, cell-based; details: HepG2, 48 h
[26] = tested on: MCF7; assay: Cytotoxicity against human MCF7 cells assessed as cell growth inhibition measured after 48 hrs by MTT assay; assay type: functional, cell-based; details: MCF7, 48 h
[27] = Cytotoxicity against human RPE-1 cells assessed as cell growth inhibition measured after 48 hrs by MTT assay; assay type: toxicity, cell-based; details: RPE-1 (TERT-RPE1) cells
[28] = tested on: MCF7; assay: Cytotoxicity against human MCF7 cells assessed as cell growth inhibition measured after 72 hrs by MTT assay; assay type: functional, cell-based; details: MCF7, 72 h
[29] = tested on: MDA-MB-231; assay: Cytotoxicity against human MDA-MB-231 cells assessed as cell growth inhibition measured after 72 hrs by MTT assay; assay type: functional, cell-based; details: MDA-MB-231, 72 h
[30] = tested on: A498; assay: Antiproliferative activity against human A498 cells assessed as cell growth inhibition measured after 72 hrs by SRB assay; assay type: functional, cell-based; details: A498, 72 h
[31] = tested on: A549; assay: Antiproliferative activity against human A549 cells assessed as cell growth inhibition measured after 72 hrs by SRB assay; assay type: functional, cell-based; details: A549, 72 h
[32] = tested on: HeLa; assay: Cytotoxicity against human HeLa cells assessed as cell growth inhibition measured after 72 hrs by MTT assay; assay type: functional, cell-based; details: pooled result: one value given for 3 cell lines, strains, targets or settings
[33] = tested on: A549; assay: Cytotoxicity against human A549 cells assessed as cell growth inhibition measured after 24 hrs by MTT assay; assay type: functional, cell-based; details: A549, 24 h, pooled result: one value given for 4 cell lines, strains, targets or settings

Compound `c1cncc(C2c3[nH]c4ccccc4c3C(c3cccnc3)c3[nH]c4ccccc4c32)c1` (stereo unspecified) has an IC50 [1] of 4 µM, an IC50 at 24 h [2] of 80 µM and an IC50 [3] of 2.7 µM.

`Oc1c(C(c2ccc(Br)cc2)N2CCCC2)ccc2[nH]c3ccccc3c12` (stereo unspecified) gave an IC50 [4] of 5.4 µM and an IC50 [5] of 5.4 µM.

For `COc1ccc2[nH]c3c(C)cc(-c4cc(-c5ccc(F)cc5)nc(N)n4)c(C)c3c2c1`, the IC50 [6] was 0.1 µM, the IC50 [7] was 0.1 µM and the IC50 [8] was 0.1 µM.

`COc1ccc2c(c1)[nH]c1cc(O)c(CN3CCCCC3)cc12` gave an IC50 [9] of 18 µM and an IC50 [10] of 18 µM.

Work on `Cc1c(C(=O)NCCc2c[nH]c3ccccc23)ccc2c3ccccc3n(C)c12` yielded an IC50 [11] greater than 53.8 µM, an IC50 [12] greater than 53.8 µM and an IC50 at 72 h [13] greater than 53.8 µM.

Work on `O=C1c2ccsc2N=C2c3[nH]c4ccc(Br)cc4c3CCC12` (stereo unspecified) yielded an IC50 [14] of 5.75 µM, an IC50 [15] of 5.75 µM and an IC50 [16] of 5.75 µM.

`O=C(Cn1c2ccccc2c2ccccc21)NNC(c1ccc([N+](=O)[O-])cc1)N1CCNCC1` (stereo unspecified) showed a GI50 [17] of less than 10 µM and a GI50 [18] of less than 10 µM.

Compound `CCCCCCn1c2ccccc2c2cc(/C=N/NC(=O)c3ccncc3)ccc21` has an IC50 [19] of 3.42 µM and an IC50 [20] of 3.42 µM.

In the case of `COc1ccc2[nH]c3c(C)cc(-c4cc(-c5ccc(C(F)(F)F)cc5)nc(N)n4)c(C)c3c2c1`, the IC50 [6] is reported as 0.1 µM, the IC50 [7] is reported as 0.1 µM and the IC50 [8] is reported as 0.1 µM.

In the case of `O=Cc1c[nH]c2c1ccc1c3ccccc3n(CCCC(=O)NCCn3ccn4c5ccc(C(F)(F)F)cc5cc34)c12`, the IC50 [21] is reported as 9 µM, the IC50 [22] is reported as 9 µM and the IC50 [6] is reported as 9 µM. For the same compound, the IC50 [5] was 9 µM and the IC50 [23] was 9 µM.

Compound `COc1ccc(C(NNC(=O)Cn2c3ccccc3c3ccccc32)N2CCNCC2)cc1` (stereo unspecified) has a GI50 [17] of less than 10 µM and a GI50 [18] of less than 10 µM.

Work on `O=Cc1c[nH]c2c1ccc1c3ccccc3n(CCCC(=O)NCCn3ccn4c5ccccc5cc34)c12` yielded an IC50 [21] of 9 µM, an IC50 [22] of 9 µM and an IC50 [6] of 9 µM. The IC50 [5] was 9 µM and the IC50 [23] was 9 µM.

With `CCn1c2ccccc2c2cc(NC(=O)c3c(N)n[nH]c3Nc3ccc(Cl)cc3)ccc21` the IC50 [24] was 2.97 µM, the IC50 [25] was 2.97 µM and the IC50 [26] was 2.97 µM. It also gave an IC50 at 48 h [27] greater than 100 µM.

`O=C1c2ccsc2N=C2c3[nH]c4ccc(Cl)cc4c3CCC12` (stereo unspecified) gave an IC50 [14] of 3.6 µM, an IC50 [15] of 3.6 µM and an IC50 [16] of 3.6 µM.

`Cc1c(C(=O)N/N=C/c2c[nH]c3ccccc23)ccc2c1[nH]c1ccccc12` showed an IC50 [12] greater than 13.3 µM.

Work on `Cc1c(C(=O)NCCc2c[nH]c3ccccc23)ccc2c1[nH]c1ccccc12` yielded an IC50 [11] of 20 µM, an IC50 [12] of 20 µM and an IC50 at 72 h [13] of 20 µM.

With `Cc1c2ccncc2c(C)c2c1[nH]c1ccccc12` [ELLIPTECINE] the IC50 [28] was 1.05 µM, the IC50 [29] was 1.05 µM and the IC50 [12] was 1.05 µM. For the same compound, the IC50 [30] was 1.74 µM, the IC50 [31] was 0.85 µM and the IC50 [32] was 1.05 µM. The IC50 [14] was 9.85 µM, the IC50 [15] was 9.85 µM and the IC50 [16] was 9.85 µM.

Work on `COc1cc([C@@H]2c3cc4c(cc3[C@@H](O[C@@H]3O[C@@H]5CO[C@@H](C)O[C@H]5[C@H](O)[C@H]3O)[C@H]3COC(=O)[C@H]23)OCO4)cc(OC)c1O` [ETOPOSIDE] yielded an IC50 [33] of 1.97 µM.

`O=c1[nH]cc(F)c(=O)[nH]1` [FLUOROURACIL] showed an IC50 [11] of 72.3 µM, an IC50 [12] of 72.3 µM and an IC50 at 72 h [13] of 72.3 µM.

For `Nc1ccn([C@@H]2O[C@H](CO)[C@@H](O)C2(F)F)c(=O)n1` [GEMCITABINE], the IC50 [19] was 35.1 µM and the IC50 [20] was 40.2 µM.
